This note sets out measurements from ChEMBL document CHEMBL5727116, “Pyrazole compounds and methods of making and using same” (2019).

Test [1] has as its target T1, Fatty-acid amide hydrolase 1 (Mus musculus, UniProt O08914).
T1 sequence (O08914 whole entry): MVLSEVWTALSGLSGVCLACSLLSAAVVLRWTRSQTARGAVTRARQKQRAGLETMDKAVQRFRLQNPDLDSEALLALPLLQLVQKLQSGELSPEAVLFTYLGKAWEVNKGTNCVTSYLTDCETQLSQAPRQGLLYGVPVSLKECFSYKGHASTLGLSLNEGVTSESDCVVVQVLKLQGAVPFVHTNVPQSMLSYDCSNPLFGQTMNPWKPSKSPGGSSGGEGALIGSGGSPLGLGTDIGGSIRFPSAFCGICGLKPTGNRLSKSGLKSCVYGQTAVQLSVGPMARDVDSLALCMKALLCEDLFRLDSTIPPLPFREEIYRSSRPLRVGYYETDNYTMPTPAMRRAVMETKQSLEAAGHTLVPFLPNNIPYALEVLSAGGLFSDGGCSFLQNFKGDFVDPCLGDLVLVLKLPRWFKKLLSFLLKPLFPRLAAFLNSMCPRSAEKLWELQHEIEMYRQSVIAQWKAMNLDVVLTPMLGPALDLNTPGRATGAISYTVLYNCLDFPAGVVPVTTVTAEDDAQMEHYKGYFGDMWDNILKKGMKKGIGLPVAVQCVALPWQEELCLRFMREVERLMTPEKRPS
Nature of the test: (§1) In Vitro Competitive Activity-Based Protein Profiling: Proteomes (mouse brain membrane fraction or cell lysates for mouse assays; human prefrontal cortex or cell membrane fractions for human assays) (50 μL, 1.0 mg/mL total protein concentration) were preincubated with varying concentrations of inhibitors at 37° C. After 30 min, FP—Rh or HT-01 (1.0 μL, 50 μM in DMSO) was added and the mixture was incubated for another 30 min at 37° C. Reactions were quenched with SDS loading buffer (15 μL-4×) and run on SDS-PAGE. Following gel imaging, serine hydrolase activity was determined by measuring fluorescent intensity of gel bands corresponding to MAGL and FAAH using ImageJ 1.43u software.Preparation of Mouse Brain Proteomes from Inhibitor Treated Mice.Inhibitors were administered to wild-type C57Bl/6J by oral gavage in a vehicle of polyethylene glycol. Each animal was sacrificed 4 h following administration and brain proteomes were prepared and analyzed according to previously established methods (See Niphakis, M. J., et al. (2011) ACS Chem. Neurosci. and Long, J. Z., et al. Nat. Chem. Biol. 5:37-44).

For another test, the target named is T2, Monoglyceride lipase (Mus musculus, UniProt O35678).
T2 sequence (O35678 whole entry): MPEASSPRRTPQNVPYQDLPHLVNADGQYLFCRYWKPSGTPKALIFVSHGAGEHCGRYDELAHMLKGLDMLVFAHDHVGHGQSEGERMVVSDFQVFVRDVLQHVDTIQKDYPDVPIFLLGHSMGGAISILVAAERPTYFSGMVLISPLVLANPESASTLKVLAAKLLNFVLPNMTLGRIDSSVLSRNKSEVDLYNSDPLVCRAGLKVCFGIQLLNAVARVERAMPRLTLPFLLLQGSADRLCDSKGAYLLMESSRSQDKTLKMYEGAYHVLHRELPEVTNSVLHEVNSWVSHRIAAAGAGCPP
The description is as §1.

On to `CC(=O)N(C)c1cnn(C(=O)N2CC3CN(Cc4cccc(Oc5ccccn5)c4)CC3C2)c1` (stereo not given), for which, in test [1], the IC50 (commonly the concentration needed to halve the response being measured) was under 100 nM.

Take `CC(=O)N(C)c1cnn(C(=O)N2CCN(Cc3ccc(Cl)c(Cl)c3)CC2)c1`: the IC50 at Monoglyceride lipase is under 100 nM. The same measure, in the same setting: as for `CC(=O)N(C)c1cnn(C(=O)N2CCN(Cc3ccc(C(F)(F)F)cc3)CC2)c1`, the figure is under 100 nM. In the case of `CC(=O)N(C)c1cnn(C(=O)N2CC3CN(Cc4cc(Cl)cc(N5CCC6(CCOCC6)C5)c4)CC3C2)c1` (stereo not given), the IC50 (in test [1]; at Monoglyceride lipase) was under 100 nM in each case.
